Experimental data from patent US20250241876A1, “ANTI-TUMOR COMPOUNDS AND METHODS OF USE THEREOF AND SYNTHESIS THEREOF” (Atossa Therapeutics, Inc., priority 2023, published 2025).

Legend:
Assay type in all cases: cell-based
[1] = test system: ERα+ breast cancer cell lines in 3D cultures; experiment: 3D culture cancer cell proliferation; details: ~1 μM
Description: (§1) Approximately 80% of breast cancers express estrogen receptor alpha (ERα, ESR1) which drives cancer progression. […] (Z)-Endoxifen (ENDX), an active metabolite of tamoxifen, is a potent orally bioavailable selective estrogen receptor modulator with a favorable safety profile now under development for breast health applications. Its synthesis yields endoxifen-related byproduct new chemical entities (NCE), including Compound 7b, Compound 7a, Compound 5b and Compound 5a. This study compared the anti-estrogenic effects of these compounds to (Z)-endoxifen in ERα+ breast cancer cell lines (MCF7, T47D, UCD12), including those with ESR1 mutations (Y537S, D538G) linked to endocrine resistance.

[2] = test system: ERα+ breast cancer cell lines (MCF7, T47D, UCD12), including those with ESR1 mutations (Y537S, D538G); experiment: 2D culture proliferation, all lines, Example 29; details: 2D cultures, estrogen-containing media, 0.02-5 μM, across all lines; p<0.0001 vs. vehicle
Description: as §1

MCF7 cells [3] = experiment: 2D culture proliferation, MCF7; details: 2D cultures, estrogen-containing media
Description: as §1

[4] = test system: ERα+ breast cancer cell lines; experiment: Cell cycle arrest, Example 29
Description: as §1

UCD12 cells = experiment: 2D culture proliferation, UCD12; details: 2D cultures, estrogen-containing media
Description: as §1

[5] = test system: ERα+ breast cancer cell lines; experiment: RT-qPCR analysis; details: 0.1 μM
[6] = test system: T47D cells with Y537S or D538G mutations; experiment: Proliferation, T47D ESR1 mutants
Description: as §1

T47D cells [7] = experiment: Apoptosis induction, T47D, Example 29; details: for apoptosis induction in T47D cells: p<0.0001 vs. vehicle
MCF7 cells [8] = experiment: Scratch-wound cell migration assay, Example 24, MCF7; details: highest dose examined (5 μM)
Method: (§2) This example covers cell migration assays with endoxifen and endoxifen-related compounds. Scratch-wound density and width measurements were tracked for 70 to 100 hours in MCF7 and T47D samples following treatment with a compound. […] FIG. 75 is a series of images of masked and unmasked wounds from the cell migration assays, with the rightmost figure showing invadopodia in cells within wound sites. In FIGS. 76-85, subfigure A is a plot of relative wound density, subfigure B is a plot of wound width, and subfigure C is a series of representative wound images from Day 3 or 4 of treatment. FIGS. 76-85 correspond to endoxifen treatment of MCF7 samples (FIG. 76), endoxifen treatment of T47D samples (FIG. 77), Compound 5b treatment of MCF7 samples (FIG. 78), Compound 5b treatment of T47D samples (FIG. 79), Compound 5a treatment of MCF7 samples (FIG. 80), Compound 5a treatment of T47D samples (FIG. 81), Compound 7b treatment of MCF7 samples (FIG. 82), Compound 7b treatment of T47D samples (FIG. 83), Compound 7a treatment of MCF7 samples (FIG. 84), and Compound 7a treatment of T47D samples (FIG. 85), respectively. […]
(§3) Migration inhibition was primarily detected at the highest tested dose (5 μM), which may be due to the fact that MCF7 and T47D cells are not migratory in nature under normal conditions. […]

T47D cells [9] = experiment: Anti-invasion (scratch wound) assay, Example 25; details: 1.25, 2.5, 5 μM
Description: This example covers anti-invasion, apoptosis, and toxicity assays for various endoxifen-related compounds against multiple cancer cell lines. FIGS. 90A-F are plots that summarize results of proliferation assays for multiple cancer cell lines (MCF7, T47D, UCD4, and UCD12) in the presence of varying doses of endoxifen and multiple endoxifen-related compounds. FIGS. 91A-C are plots that summarize results of wound confluence measurements from scratch wound assays on T47D cells in the presence of 1.25 μM (FIG. 91A), 2.5 μM (FIG. 91B), and 5 μM (FIG. 91C) endoxifen and multiple endoxifen-related compounds. FIGS. 92A-C are plots that summarize results of wound density measurements from scratch wound assays on T47D cells in the presence of 1.25 μM (FIG. 92A), 2.5 μM (FIG. 92B), and 5 μM (FIG. 92C) endoxifen and multiple endoxifen-related compounds. FIGS. 93A-C are plots that summarize results of wound confluence measurements from scratch wound assays on MCF7 cells in the presence of 1.25 μM (FIG. 93A), 2.5 μM (FIG. 93B), and 5 μM (FIG. 93C) endoxifen and multiple endoxifen-related compounds. FIGS. 94A-C are plots that summarize results of wound density measurements from scratch wound assays on MCF7 cells in the presence of 1.25 μM (FIG. 94A), 2.5 μM (FIG. 94B), and 5 μM (FIG. 94C) endoxifen and multiple endoxifen-related compounds. […]

MCF7 cells [10] = experiment: Migration and invasion inhibition assays, MCF7; details: p<0.0001
T47D cells [11] = experiment: Scratch-wound cell migration assay, Example 24, T47D; details: highest dose examined (5 μM)
Method: as §2, §3

T47D cells [12] = experiment: 2D culture proliferation, T47D; details: estrogen-deficient conditions
Description: as §1

T47D cancer cells = experiment: Cell migration (scratch-wound) assay, Example 20; details: high doses (FIGS. 58, 60, 62); 0 to 100 hours
Method: This example covers cell migration assays with endoxifen and multiple endoxifen-related compounds on T47D cancer cells. FIGS. 52A, 53A, 54A, 55A, and 56A are plots of relative wound density following treatment with vehicle or 0.02 to 6 μM endoxifen (FIG. 52A), Compound 5b (FIG. 53A), Compound 5a (FIG. 54A), Compound 7a (FIG. 55A), and Compound 7b (FIG. 56A) as a function of time (0 to 100 hours). FIGS. 52B, 53B, 54B, 55B, and 56B are plots of wound width following treatment with vehicle or 0.02 to 6 μM endoxifen (FIG. 52B), Compound 5b (FIG. 53B), Compound 5a (FIG. 54B), Compound 7a (FIG. 55B), and Compound 7b (FIG. 56B) as a function of time (0 to 100 hours). FIGS. 52C, 53C, 54C, 55C, and 56C are series of plots of individual replicates of relative wound density and wound width for endoxifen, Compound 5b, Compound 5a, Compound 7a, and Compound 7b, respectively. FIG. 57 is a plot of relative wound density over time (0 to 100 hours) for a wound treated with vehicle (DMSO), 5 μM endoxifen, 5 μM Compound 5b, and 5 μM Compound 5a. FIG. 58 is a plot of relative wound density over time (0 to 100 hours) for a wound treated with vehicle (DMSO), 5 μM endoxifen, 5 μM Compound 7a, and 5 μM Compound 7b. FIG. 59 is a plot of relative wound density over time (0 to 100 hours) for a wound treated with vehicle (DMSO), 2.5 μM endoxifen, 2.5 μM Compound 5b, and 2.5 μM Compound 5a. […]

T47D cells [13] = experiment: Migration and invasion inhibition assays, T47D; details: p<0.0001
[14] = test system: estrogen-induced and ERα-mediated activation of an estrogen response element (ERE) luciferase reporter construct in ER+ T47D cells; experiment: Luciferase (ERE reporter) agonist/antagonist assay, ER+ cells; details: CSS+E2 media

Structure (SMILES) | potency in 3D cultures, ranking [1] | anti-proliferative effect, inhibition [2] | anti-proliferative effect, ranking (MCF7 cells [3]) | G1 cell cycle arrest [4] | anti-proliferative effect, ranking (UCD12 cells) | RT-qPCR analysis, potency ranking [5] | potency, ranking [6] | apoptosis induction in T47D cells, ranking (T47D cells [7]) | apoptosis induction in T47D cells (T47D cells [7]) | potency at inhibiting the migration and proliferation compared with endoxifen (MCF7 cells [8]) | potency at inhibiting the invasion of T47D cells compared with endoxifen (T47D cells [9]) | migration and invasion inhibition compared with (Z)-endoxifen (MCF7 cells [10]) | potency at inhibiting the migration and proliferation compared with endoxifen (T47D cells [11]) | anti-proliferative activity compared with (Z)-endoxifen (T47D cells [12]) | potency at inhibiting the migration and proliferation of T47D cells compared with endoxifen (T47D cancer cells) | migration and invasion inhibition compared with (Z)-endoxifen (T47D cells [13]) | anti-proliferative effects in ER+ cells compared with endoxifen [14]
CC/C(=C(\c1ccc(O)cc1)c1ccc(OCCNC)cc1)c1ccccc1 [(Z)-endoxifen, (Z)-Endoxifen, reference compound] | comparable, superior potency | 20-90% | strongest effects | most effective | strongest effects | most potent | most potent | superior activity | significantly induced |  |  |  |  |  |  |  | 
CC/C(=C(/c1ccc(O)cc1)c1ccc(OCCN(C)C(C)=O)cc1)c1ccccc1 [Compound 7b] |  |  |  |  |  |  |  |  | significantly induced | more potent than endoxifen | more potent than endoxifen | consistently outperformed (Z)-endoxifen | more potent than endoxifen | more effective | greater potency than endoxifen | consistently outperformed (Z)-endoxifen | closely resemble that of endoxifen
